These results are taken from patent publication US20200048308A1, “INFLUENZA VIRUS NE[…]” (priority 2016, published 2020).

Assay [1] addresses H1/Nca HA (biotinylated full length trimeric HA, A/New Caledonia/20/1999) (Influenza A virus, UniProt Q6WG00). As to the kind of experiment: AlphaLISA competition assay with HB80.4, H1/NCa HA. The format is binding, influenza A virus H1N1 A/New Caledonia/20/1999. The source says:
(§1) Binding competition studies were designed to test compounds of the invention for competition with other well characterized HA binding proteins (such as e.g. CR9114, CR6261 and HB80.4) with known epitopes on HA. The epitopes where either located at the stem of the HA (viral membrane proximal part of HA) or, for control purposes, at the head of HA (viral membrane distal part of HA). If competition was observed, it was assumed that both molecules bind to a similar or at least overlapping epitope at the surface of HA. Competition with a HA head- and stem-binder was interpreted as unspecific binding.
(§2) Hereto an AlphaLISA competition assay (Perkin Elmer) was established which relied on biotinylated full length and trimeric HA proteins (Protein Sciences, 10 μL, 0.5 nM final concentration in 50 μL) bound by HA-specific binders. The interaction between HA and the binder was detected after 1 h incubation at room temperature (RT) with two beads, a streptavidin donor bead recognizing HA (10 μL of 10 μg/mL) and an anti Fc bead (10 μg/mL) recognizing the IgGs used. If after an additional hour of incubation at RT the excited donor bead (680 nm) and acceptor bead are in close proximity, an energy transfer (singlet oxygen) can be measured as a luminescence signal of the acceptor bead (Perkin Elmer EnVision plate reader). The signal intensity in this homogeneous assay format is directly proportional to the binding strength (affinity/avidity) between both binding partners.
Background: Bead proximity is the source of the signal in Alpha formats.

Assay [2] has as its target H1/Cal HA (biotinylated full length trimeric HA, A/California/07/2009) (Influenza A virus, UniProt C3W5X2). The assay is described as follows: AlphaLISA competition assay with HB80.4, H1/Cal HA. In kind it is binding, influenza A virus H1N1 A/California/07/2009.
Text: as §1, §2

In assay [3] the test system is influenza virus A/New Caledonia (H1). As to the kind of experiment: Virus neutralization assay (VNA) on Calu-3 cells. The settings on record: Calu-3 cells, 5 TCID50/50 μL virus, 4 days, NP ELISA readout. In kind it is cell-based, influenza A virus H1N1 A/New Caledonia/20/1999.
[4] abbreviates: ALC_H1_NCa_HB80.4 calculated pIC50, AlphaLISA competition with HB80.4 on H1 NCa HA, 0.5 nM HA.

Each structure is given as a SMILES string. Where two headings read alike, the source gives them in different places. Where a SMILES comes first, the peptide text is derived from it.

For the compound `CSCC[C@@H]1NC(=O)CNC(=O)CNC(=O)[C@H](C)NC(=O)[C@H](C(C)C)NC(=O)CNC(=O)[C@H](CC(C)C)NC(=O)[C@@H]2CCCN2C(=O)[C@H](CC(=O)O)NC(=O)[C@H](CCC(=O)O)NC(=O)[C@H](Cc2ccc(O)cc2)NC(=O)[C@H](CC(C)C)NC(=O)[C@H](CO)NC(=O)[C@H](C(C)C)NC(=O)[C@@H]2CCCN2C(=O)[C@H]2CCCN2C(=O)[C@H](Cc2ccc(O)cc2)NC(=O)[C@H](C(C)C)NC(=O)CNC1=O` [CP141085, Pro-Val-Ser-Leu-Tyr-Glu-Asp-Pro-Leu-Gly-Val-Ala-Gly-Gly-Met-Gly-Val-Tyr-D-Pro], the IC50 in assay [1] (setting [4]) is 0.0126 µM; in assay [1] (IC50 in the alphalisa assay, best compound, strain not stated in text (matches pIC50 7.9 on H1 NCa)), 0.013 µM; in assay [2], 0.0158 µM. The “VNA_H1_NCa_Calu3 pIC50” value in assay [3] is 5.9.

In the case of `CCCC[C@@H]1NC(=O)[C@H](CCC(=O)O)NC(=O)CNC(=O)[C@H](C)NC(=O)[C@H](C(C)C)NC(=O)CNC(=O)[C@H](CC(C)C)NC(=O)[C@@H]2CCCN2C(=O)[C@H](CC(=O)O)NC(=O)[C@H](CCCNC(=N)N)NC(=O)[C@H](Cc2ccc(O)cc2)NC(=O)[C@@H](NC(=O)CCC(=O)O)CSSC[C@@H](C(N)=O)NC1=O` [CP141089, Suc-Cys-Tyr-Arg-Asp-Pro-Leu-Gly-Val-Ala-Gly-Glu-Nlu-Cys-NH2], the IC50 was 50.1 µM in assay [1] and 25.1 µM in assay [2].

For the compound `CC[C@H](NC(=O)[C@@H](NC(=O)CNC(=O)[C@H](CCCc1ccccc1)NC(=O)[C@@H]1CCCN1C(=O)[C@H](CC(=O)O)NC(=O)[C@H](CCCNC(=N)N)NC(=O)[C@H](Cc1ccc(O)cc1)NC(=O)[C@H](CC(C)C)NC(=O)[C@H](CO)NC(=O)[C@@H](NC(=O)CCC(=O)O)C(C)C)C(C)C)C(=O)NCC(=O)N[C@@H](CCC(=O)O)C(=O)N[C@@H](CCSC)C(=O)NCC(=O)N[C@H](C(=O)N[C@@H](Cc1ccc(O)cc1)C(N)=O)C(C)C` [CP141090, Suc-Val-Ser-Leu-Tyr-Arg-Asp-Pro-Ph5-Gly-Val-Abu-Gly-Glu-Met-Gly-Val-Tyr-NH2] (HELM PEPTIDE1{[O=C(O)CCC(=O)[*:2]].V.S.L.Y.R.D.P.[O=C([C@H](CCCc1ccccc1)N[*:1])[*:2]].G.V.[Abu].G.E.M.G.V.Y.[am]}$$$$V2.0), the half-maximal inhibitory concentration (IC50) in assay [1] is 15.8 µM; in assay [2], 10 µM.

Take `CSCC[C@H](NC(=O)CNC(=O)CNC(=O)[C@H](C)NC(=O)[C@@H](NC(=O)CNC(=O)[C@H](CC(C)C)NC(=O)[C@@H]1CCCN1C(=O)[C@H](CC(=O)O)NC(=O)[C@H](CCC(=O)O)NC(=O)[C@H](Cc1ccc(O)cc1)NC(=O)[C@H](CC(C)C)NC(=O)[C@H](CO)NC(=O)[C@@H](NC(=O)CCC(=O)O)C(C)C)C(C)C)C(=O)NCC(=O)N[C@H](C(=O)N[C@@H](Cc1ccc(O)cc1)C(N)=O)C(C)C` [CP141074, Suc-Val-Ser-Leu-Tyr-Glu-Asp-Pro-Leu-Gly-Val-Ala-Gly-Gly-Met-Gly-Val-Tyr-NH2]: the IC50 in assay [1] (setting [4]) was 5.01 µM; in assay [2], 3.98 µM.

For `CSCC[C@H](NC(=O)CNC(=O)CNC(=O)[C@H](C)NC(=O)[C@@H](NC(=O)CNC(=O)[C@H](CC(C)C)NC(=O)[C@@H]1CCCN1C(=O)[C@H](CC(=O)O)NC(=O)[C@H](CCCNC(=N)N)NC(=O)[C@H](Cc1ccc(O)cc1)NC(=O)[C@H](CC(C)C)NC(=O)[C@H](CO)NC(=O)[C@@H](NC(=O)CCC(=O)O)C(C)C)C(C)C)C(=O)NCC(=O)N[C@H](C(=O)N[C@@H](Cc1ccc(O)cc1)C(N)=O)C(C)C` [CP141073, Suc-Val-Ser-Leu-Tyr-Arg-Asp-Pro-Leu-Gly-Val-Ala-Gly-Gly-Met-Gly-Val-Tyr-NH2], the values for the IC50 in assay [1] (setting [4]) and in assay [2] were 6.31 µM and 2 µM, respectively.

For the compound `CC[C@@H]1NC(=O)[C@H](C(C)C)NC(=O)CNC(=O)[C@H](CCCc2ccccc2)NC(=O)[C@@H]2CCCN2C(=O)[C@H](CC(=O)O)NC(=O)[C@H](CCC(=O)O)NC(=O)[C@H](Cc2ccc(O)cc2)NC(=O)[C@H](CC(C)C)NC(=O)CNC(=O)[C@H]2CCCN2C(=O)CNC(=O)[C@H](CCSC)NC(=O)CNC(=O)CNC1=O` [CP141092, Gly-Leu-Tyr-Glu-Asp-Pro-Ph5-Gly-Val-Abu-Gly-Gly-Met-Gly-D-Pro] (HELM PEPTIDE1{[Abu].G.G.M.G.[dP].G.L.Y.E.D.P.[O=C([C@H](CCCc1ccccc1)N[*:1])[*:2]].G.V}$PEPTIDE1,PEPTIDE1,1:R1-15:R2$$$V2.0), the IC50 in assay [1] was 0.251 µM; in assay [2], 0.398 µM.

Regarding `CSCC[C@@H]1NC(=O)[C@H](CCC(=O)O)NC(=O)CNC(=O)[C@H](C)NC(=O)[C@H](C(C)C)NC(=O)CNC(=O)[C@H](CC(C)C)NC(=O)[C@@H]2CCCN2C(=O)[C@H](CC(=O)O)NC(=O)[C@H](CCCNC(=N)N)NC(=O)[C@H](Cc2ccc(O)cc2)NC(=O)[C@H](CC(C)C)NC(=O)[C@@H](NC(=O)CCC(=O)O)CSSC[C@@H](C(N)=O)NC(=O)CNC1=O` [CP141071, Suc-Cys-Leu-Tyr-Arg-Asp-Pro-Leu-Gly-Val-Ala-Gly-Glu-Met-Gly-Cys-NH2] (HELM PEPTIDE1{[O=C(O)CCC(=O)[*:2]].C.L.Y.R.D.P.L.G.V.A.G.E.M.G.C.[am]}$PEPTIDE1,PEPTIDE1,2:R3-16:R3$$$V2.0), the IC50 in assay [1] (setting [4]) was 2 µM; in assay [2] it was 0.501 µM.

With `CCCC[C@H](NC(=O)CNC(=O)CNC(=O)[C@H](C)NC(=O)[C@@H](NC(=O)CNC(=O)[C@H](CC(C)C)NC(=O)[C@@H]1CCCN1C(=O)[C@H](CC(=O)O)NC(=O)[C@H](CCCNC(=N)N)NC(=O)[C@H](Cc1ccc(O)cc1)NC(=O)[C@H](CC(C)C)NC(=O)[C@H](CO)NC(=O)[C@@H](NC(=O)CCC(=O)O)C(C)C)C(C)C)C(=O)NCC(=O)N[C@H](C(=O)N[C@@H](Cc1ccc(O)cc1)C(N)=O)C(C)C` [CP141081, Suc-Val-Ser-Leu-Tyr-Arg-Asp-Pro-Leu-Gly-Val-Ala-Gly-Gly-Nlu-Gly-Val-Tyr-NH2], the IC50 in assay [1] was 7.94 µM; in assay [2], 3.16 µM.

On to `CSCC[C@H](NC(=O)[C@H](CCC(=O)O)NC(=O)CNC(=O)[C@H](C)NC(=O)[C@@H](NC(=O)CNC(=O)[C@H](CC(C)C)NC(=O)[C@@H]1CCCN1C(=O)[C@H](CC(=O)O)NC(=O)[C@H](CCCNC(=N)N)NC(=O)[C@H](Cc1ccc(O)cc1)NC(=O)[C@H](CC(C)C)NC(=O)[C@H](CO)NC(=O)[C@@H](NC(=O)CCC(=O)O)C(C)C)C(C)C)C(=O)NCC(=O)N[C@H](C(=O)N[C@@H](Cc1ccc(O)cc1)C(N)=O)C(C)C` [CP141075, Suc-Val-Ser-Leu-Tyr-Arg-Asp-Pro-Leu-Gly-Val-Ala-Gly-Glu-Met-Gly-Val-Tyr-NH2] (HELM PEPTIDE1{[O=C(O)CCC(=O)[*:2]].V.S.L.Y.R.D.P.L.G.V.A.G.E.M.G.V.Y.[am]}$$$$V2.0), for which the IC50 is 50.1 µM in assay [1] (setting [4]) and 10 µM in assay [2].

For `CSCC[C@@H]1NC(=O)CNC(=O)CNC(=O)[C@H](C)NC(=O)[C@H](C(C)C)NC(=O)CNC(=O)[C@H](CC(C)C)NC(=O)[C@@H]2CCCN2C(=O)[C@H](CC(=O)O)NC(=O)[C@H](CCC(=O)O)NC(=O)[C@H](Cc2ccc(O)cc2)NC(=O)[C@H](CC(C)C)NC(=O)[C@H](CO)NC(=O)[C@H]2CCCN2C(=O)CNC(=O)[C@H](C(C)C)NC(=O)CNC1=O` [CP141083, D-Pro-Ser-Leu-Tyr-Glu-Asp-Pro-Leu-Gly-Val-Ala-Gly-Gly-Met-Gly-Val-Gly], the IC50 in assay [1] was 10 µM; in assay [2], 5.01 µM.

In the case of `CC[C@@H]1NC(=O)[C@H](C(C)C)NC(=O)CNC(=O)[C@H](CCCc2ccccc2)NC(=O)[C@@H]2CCCN2C(=O)[C@H](CC(=O)O)NC(=O)[C@H](CCCNC(=N)N)NC(=O)[C@H](Cc2ccc(O)cc2)NC(=O)[C@@H](NC(=O)CCC(=O)O)CSSC[C@@H](C(N)=O)NC(=O)[C@H](CCSC)NC(=O)[C@H](CCC(=O)O)NC(=O)CNC1=O` [CP141093, Suc-Cys-Tyr-Arg-Asp-Pro-Ph5-Gly-Val-Abu-Gly-Glu-Met-Cys-NH2] (HELM PEPTIDE1{[O=C(O)CCC(=O)[*:2]].C.Y.R.D.P.[O=C([C@H](CCCc1ccccc1)N[*:1])[*:2]].G.V.[Abu].G.E.M.C.[am]}$PEPTIDE1,PEPTIDE1,2:R3-14:R3$$$V2.0), the values for the IC50 in assay [1] and in assay [2] were 20 µM and 10 µM, respectively.

For `CSCC[C@@H]1NC(=O)[C@H](CCC(=O)O)NC(=O)CNC(=O)[C@H](C)NC(=O)[C@H](C(C)C)NC(=O)CNC(=O)[C@H](CC(C)C)NC(=O)[C@@H]2CCCN2C(=O)[C@H](CC(=O)O)NC(=O)[C@H](CCCNC(=N)N)NC(=O)[C@H](Cc2ccc(O)cc2)NC(=O)[C@@H](NC(=O)CCC(=O)O)CSSC[C@@H](C(N)=O)NC1=O` [CP141072, Suc-Cys-Tyr-Arg-Asp-Pro-Leu-Gly-Val-Ala-Gly-Glu-Met-Cys-NH2], the results for the IC50 in assay [1] and in assay [2] were 12.6 µM and 15.8 µM, respectively.

A word on the IC50: it is the point on the concentration scale where inhibition reaches its midpoint.
